{"source": "paper PMC10194883", "about": "(PLOS ONE, 2023)", "format_in_all_cases": "cell-based", "key": {"[1]": {"system": "SARS-CoV-2 pseudovirus Omicron (B.1.1529) into ACE2h cells"}, "[2]": {"system": "SARS-CoV-2 Delta (B.1.617.2) pseudovirus into ACE2h cells", "assay": "microbe, parasite or virus in culture"}, "[3]": {"system": "ACE2 high expressing-HEK293T cells (ACE2h cells)", "details": "24 h, even at 100 μM", "method": "For cytotoxicity assay, ACE2^h cells were seeded into 96-well plates at a density of 1×10^4 cells per well and then treated with different concentrations of OA (0.01, 0.1, 1, 10, 100 μM) for 24 h, then 10 μL of Cell Counting Kit (IV08-500, Invigentech, USA) solution was added to each well followed by 2 h of incubation. The relative cell viability was assessed by the detection of the absorbance at 450 nm using a microplate reader (Infinite F50, Thermo Fisher, China). The survival rate of ACE2^h cells was calculated as the following formula: Survival rate = [(OD Treated –OD Blank) / (OD Control−OD Blank)] × 100%."}}}
{"smiles": "O=C(O)C(=O)O", "note": "[OA, Oxalic acid]", "values": [{"measurement": "luciferase activity compared to the control", "setting": "[1]", "result": "significantly reduced"}, {"measurement": "expression of green fluorescent protein in ACE2h cells", "setting": "[2]", "result": "significantly reduced"}, {"measurement": "IC50", "setting": "[2]; Pseudovirus, read-out: IC50, inhibition of entry of Delta pseudovirus into ACE2h cells", "result": 26, "unit": "µM"}, {"measurement": "cytotoxic effect (cell viability)", "setting": "[3]", "result": "no significant cytotoxic effect"}]}
